Assay results: patent publication US7074789B2, “Kinase inhibitors” (Amgen Inc., priority 1999, dated 2006)

What was measured:
Type in all cases: biochemical
Flt-1 = target: T1, Flt-1 (Homo sapiens, UniProt P17948); test: Kinase inhibition assay (33P transfer), Flt-1
T1 construct: Kinases are expressed as either kinase domains or full length constructs; made in house
Procedure, shortened: (§1)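 Read-out: scintillation counts of 33P moved from ATP onto synthetic peptide polymer coated on the well surface, after washing with 0.5% phosphoric acid. Enzymes were tagged (GST or polyHistidine) and came from bacterial or insect-cell expression. IC50 marks 50% loss of incorporated label.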

ErbB4 = target: T2, ErbB4 (Homo sapiens, UniProt Q15303); test: Kinase inhibition assay (33P transfer), ErbB4; conditions: read-out: ErbB4-1
T2 construct: Kinases are expressed as either kinase domains or full length constructs; made in house

AKT = target: T3, AKT (Homo sapiens, UniProt Q9Y243); test: Kinase inhibition assay (33P transfer), AKT; conditions: Table 2, kinase inhibition class; read-out: AKT3-1
T3 construct: Kinases are expressed as either kinase domains or full length constructs; made in house
Procedure, shortened: (§2)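 GST/His-tagged kinase (domain or full length; E. coli or baculovirus) + [33P]ATP on plates coated with poly(Glu,Tyr) 4:1 or poly(Arg,Ser) 3:1; incubate, wash 0.5% H3PO4, add scintillant, count.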

Itk = target: T4, Itk (Homo sapiens, UniProt Q08881); test: Kinase inhibition assay (33P transfer), Itk; conditions: Table 3; read-out: Itk-1
T4 construct: Kinases are expressed as either kinase domains or full length constructs; made in house
T4 sequence (Q08881 1-620): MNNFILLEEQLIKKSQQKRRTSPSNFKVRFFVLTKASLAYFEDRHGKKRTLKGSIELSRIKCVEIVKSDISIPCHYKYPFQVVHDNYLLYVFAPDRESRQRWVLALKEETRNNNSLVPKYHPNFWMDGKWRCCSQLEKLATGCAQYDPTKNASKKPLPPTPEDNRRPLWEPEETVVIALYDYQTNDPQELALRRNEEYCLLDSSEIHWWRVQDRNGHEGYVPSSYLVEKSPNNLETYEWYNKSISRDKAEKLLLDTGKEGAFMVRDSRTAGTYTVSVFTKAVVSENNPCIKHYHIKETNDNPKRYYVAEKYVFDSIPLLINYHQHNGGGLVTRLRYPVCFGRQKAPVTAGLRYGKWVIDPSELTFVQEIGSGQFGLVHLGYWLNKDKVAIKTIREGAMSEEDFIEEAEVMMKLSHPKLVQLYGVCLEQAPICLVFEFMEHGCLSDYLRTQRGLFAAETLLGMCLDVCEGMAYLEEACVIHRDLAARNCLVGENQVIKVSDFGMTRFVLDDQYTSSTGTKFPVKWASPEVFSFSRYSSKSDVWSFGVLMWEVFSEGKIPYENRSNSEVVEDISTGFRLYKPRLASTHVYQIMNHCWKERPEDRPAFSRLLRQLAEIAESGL
Procedure, shortened: as §1

c-Met = target: T5, c-Met (Homo sapiens, UniProt P08581); test: Kinase inhibition assay (33P transfer), c-Met; conditions: Table 2, kinase inhibition class; read-out: Met-1
T5 construct: Kinases are expressed as either kinase domains or full length constructs; made in house
T5 sequence (P08581 25-1390): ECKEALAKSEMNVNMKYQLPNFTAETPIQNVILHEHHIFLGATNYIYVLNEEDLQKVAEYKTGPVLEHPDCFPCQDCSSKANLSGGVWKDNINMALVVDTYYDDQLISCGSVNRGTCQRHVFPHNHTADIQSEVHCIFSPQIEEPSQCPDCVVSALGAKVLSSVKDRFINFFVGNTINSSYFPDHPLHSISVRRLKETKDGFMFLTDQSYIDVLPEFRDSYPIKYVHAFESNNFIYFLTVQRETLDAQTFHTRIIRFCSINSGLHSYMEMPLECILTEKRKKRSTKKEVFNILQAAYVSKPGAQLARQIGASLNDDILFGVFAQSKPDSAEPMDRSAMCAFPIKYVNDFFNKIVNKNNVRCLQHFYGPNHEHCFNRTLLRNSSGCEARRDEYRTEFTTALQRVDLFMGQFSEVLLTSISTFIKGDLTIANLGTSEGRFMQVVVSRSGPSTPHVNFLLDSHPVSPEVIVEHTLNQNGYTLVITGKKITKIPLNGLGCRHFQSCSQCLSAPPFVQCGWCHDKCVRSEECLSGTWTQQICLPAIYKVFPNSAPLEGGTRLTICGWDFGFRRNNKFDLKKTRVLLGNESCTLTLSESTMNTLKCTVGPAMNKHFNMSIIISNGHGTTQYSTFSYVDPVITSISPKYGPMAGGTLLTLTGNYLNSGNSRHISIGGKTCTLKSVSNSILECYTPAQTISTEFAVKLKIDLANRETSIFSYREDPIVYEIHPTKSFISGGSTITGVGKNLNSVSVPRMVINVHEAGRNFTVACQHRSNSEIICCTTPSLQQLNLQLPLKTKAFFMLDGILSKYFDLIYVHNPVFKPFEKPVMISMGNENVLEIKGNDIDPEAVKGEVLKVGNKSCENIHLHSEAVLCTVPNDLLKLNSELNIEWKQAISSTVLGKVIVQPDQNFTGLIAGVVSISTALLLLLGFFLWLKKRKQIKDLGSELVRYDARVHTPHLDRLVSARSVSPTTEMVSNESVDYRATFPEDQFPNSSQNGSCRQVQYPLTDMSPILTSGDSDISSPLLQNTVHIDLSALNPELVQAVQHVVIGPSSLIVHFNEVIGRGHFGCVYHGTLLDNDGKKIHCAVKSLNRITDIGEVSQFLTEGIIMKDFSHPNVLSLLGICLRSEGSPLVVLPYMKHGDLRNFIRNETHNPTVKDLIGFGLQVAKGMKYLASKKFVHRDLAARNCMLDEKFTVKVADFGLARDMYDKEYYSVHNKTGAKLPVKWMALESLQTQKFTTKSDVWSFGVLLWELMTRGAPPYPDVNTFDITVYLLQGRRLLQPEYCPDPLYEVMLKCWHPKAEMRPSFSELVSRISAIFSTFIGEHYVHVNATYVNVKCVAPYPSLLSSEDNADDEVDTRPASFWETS
Procedure, shortened: as §1

FGFR1 = target: T6, FGFR1 (Homo sapiens, UniProt P11362); test: Kinase inhibition assay (33P transfer), FGFR1; conditions: read-out: FGFR1-1
T6 construct: Kinases are expressed as either kinase domains or full length constructs; made in house
T6 sequence (P11362 22-822, species assumed): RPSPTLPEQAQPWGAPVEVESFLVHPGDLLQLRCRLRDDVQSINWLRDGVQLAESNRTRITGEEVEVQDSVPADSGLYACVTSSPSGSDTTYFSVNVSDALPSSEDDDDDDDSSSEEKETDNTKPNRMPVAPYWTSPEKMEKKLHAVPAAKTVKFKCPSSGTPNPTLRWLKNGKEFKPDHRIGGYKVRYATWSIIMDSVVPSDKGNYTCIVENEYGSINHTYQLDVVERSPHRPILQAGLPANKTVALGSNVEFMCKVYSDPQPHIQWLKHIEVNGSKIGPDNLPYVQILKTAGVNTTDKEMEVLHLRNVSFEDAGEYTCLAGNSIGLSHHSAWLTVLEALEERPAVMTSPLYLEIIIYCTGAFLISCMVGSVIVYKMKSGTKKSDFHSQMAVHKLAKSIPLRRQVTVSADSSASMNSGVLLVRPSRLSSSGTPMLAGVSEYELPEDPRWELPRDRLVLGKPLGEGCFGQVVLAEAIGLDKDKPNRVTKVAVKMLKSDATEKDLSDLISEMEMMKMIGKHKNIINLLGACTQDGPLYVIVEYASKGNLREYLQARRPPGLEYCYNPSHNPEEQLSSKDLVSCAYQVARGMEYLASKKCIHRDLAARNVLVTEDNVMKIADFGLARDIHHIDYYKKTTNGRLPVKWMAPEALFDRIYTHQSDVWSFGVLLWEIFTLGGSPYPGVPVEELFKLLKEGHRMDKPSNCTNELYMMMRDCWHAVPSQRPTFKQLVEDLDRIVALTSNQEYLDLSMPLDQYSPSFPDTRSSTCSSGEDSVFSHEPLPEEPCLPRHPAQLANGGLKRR

Lck = target: T7, Lck (Homo sapiens, UniProt P06239); test: Kinase inhibition assay (33P transfer), Lck; conditions: Table 3; read-out: Lck-1
T7 construct: Kinases are expressed as either kinase domains or full length constructs; made in house
Procedure, shortened: as §2

Lyn = target: T8, Lyn (Homo sapiens, UniProt P07948); test: Kinase inhibition assay (33P transfer), Lyn; conditions: Table 6, Lyn-1 kinase inhibition class
T8 construct: Kinases are expressed as either kinase domains or full length constructs; made in house
T8 sequence (P07948 whole entry, species assumed, the tested form may be a part): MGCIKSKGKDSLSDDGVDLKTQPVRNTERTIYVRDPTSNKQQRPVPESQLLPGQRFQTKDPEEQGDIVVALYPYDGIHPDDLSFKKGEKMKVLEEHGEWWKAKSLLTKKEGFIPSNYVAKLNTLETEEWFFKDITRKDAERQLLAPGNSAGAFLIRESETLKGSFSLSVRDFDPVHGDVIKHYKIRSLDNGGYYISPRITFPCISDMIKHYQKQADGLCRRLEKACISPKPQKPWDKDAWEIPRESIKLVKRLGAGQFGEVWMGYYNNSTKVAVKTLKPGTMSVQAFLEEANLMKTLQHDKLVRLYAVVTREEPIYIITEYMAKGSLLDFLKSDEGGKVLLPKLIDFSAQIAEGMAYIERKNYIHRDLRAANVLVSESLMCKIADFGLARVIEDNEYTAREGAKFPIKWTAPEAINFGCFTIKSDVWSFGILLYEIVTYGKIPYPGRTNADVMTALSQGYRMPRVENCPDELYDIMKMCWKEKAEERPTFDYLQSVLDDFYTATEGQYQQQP
Procedure, shortened: as §1

Fyn = target: T9, Fyn (Homo sapiens, UniProt P06241); test: Kinase inhibition assay (33P transfer), Fyn; conditions: read-out: Fyn-1
T9 construct: Kinases are expressed as either kinase domains or full length constructs; made in house
T9 sequence (P06241 whole entry, species assumed, the tested form may be a part): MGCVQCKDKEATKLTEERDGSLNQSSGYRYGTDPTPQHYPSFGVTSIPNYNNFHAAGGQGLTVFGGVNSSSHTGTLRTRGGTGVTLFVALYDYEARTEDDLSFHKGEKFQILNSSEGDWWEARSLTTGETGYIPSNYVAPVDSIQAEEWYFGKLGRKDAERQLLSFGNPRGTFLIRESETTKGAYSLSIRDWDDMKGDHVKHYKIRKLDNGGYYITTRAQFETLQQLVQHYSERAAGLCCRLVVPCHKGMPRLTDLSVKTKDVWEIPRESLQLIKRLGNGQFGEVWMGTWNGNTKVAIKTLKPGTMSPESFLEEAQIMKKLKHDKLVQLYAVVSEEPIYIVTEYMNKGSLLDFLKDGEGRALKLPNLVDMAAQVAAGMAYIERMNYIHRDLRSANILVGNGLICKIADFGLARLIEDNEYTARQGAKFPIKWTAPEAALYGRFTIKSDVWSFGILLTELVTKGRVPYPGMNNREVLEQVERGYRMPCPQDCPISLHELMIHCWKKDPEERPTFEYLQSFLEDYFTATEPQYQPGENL
Procedure, shortened: as §1

IGFR-1 = target: T10, IGFR-1 (Homo sapiens, UniProt P08069); test: Kinase inhibition assay (33P transfer), IGFR-1; conditions: Table 2, kinase inhibition class
T10 construct: Kinases are expressed as either kinase domains or full length constructs; made in house
T10 sequence (P08069 31-1367): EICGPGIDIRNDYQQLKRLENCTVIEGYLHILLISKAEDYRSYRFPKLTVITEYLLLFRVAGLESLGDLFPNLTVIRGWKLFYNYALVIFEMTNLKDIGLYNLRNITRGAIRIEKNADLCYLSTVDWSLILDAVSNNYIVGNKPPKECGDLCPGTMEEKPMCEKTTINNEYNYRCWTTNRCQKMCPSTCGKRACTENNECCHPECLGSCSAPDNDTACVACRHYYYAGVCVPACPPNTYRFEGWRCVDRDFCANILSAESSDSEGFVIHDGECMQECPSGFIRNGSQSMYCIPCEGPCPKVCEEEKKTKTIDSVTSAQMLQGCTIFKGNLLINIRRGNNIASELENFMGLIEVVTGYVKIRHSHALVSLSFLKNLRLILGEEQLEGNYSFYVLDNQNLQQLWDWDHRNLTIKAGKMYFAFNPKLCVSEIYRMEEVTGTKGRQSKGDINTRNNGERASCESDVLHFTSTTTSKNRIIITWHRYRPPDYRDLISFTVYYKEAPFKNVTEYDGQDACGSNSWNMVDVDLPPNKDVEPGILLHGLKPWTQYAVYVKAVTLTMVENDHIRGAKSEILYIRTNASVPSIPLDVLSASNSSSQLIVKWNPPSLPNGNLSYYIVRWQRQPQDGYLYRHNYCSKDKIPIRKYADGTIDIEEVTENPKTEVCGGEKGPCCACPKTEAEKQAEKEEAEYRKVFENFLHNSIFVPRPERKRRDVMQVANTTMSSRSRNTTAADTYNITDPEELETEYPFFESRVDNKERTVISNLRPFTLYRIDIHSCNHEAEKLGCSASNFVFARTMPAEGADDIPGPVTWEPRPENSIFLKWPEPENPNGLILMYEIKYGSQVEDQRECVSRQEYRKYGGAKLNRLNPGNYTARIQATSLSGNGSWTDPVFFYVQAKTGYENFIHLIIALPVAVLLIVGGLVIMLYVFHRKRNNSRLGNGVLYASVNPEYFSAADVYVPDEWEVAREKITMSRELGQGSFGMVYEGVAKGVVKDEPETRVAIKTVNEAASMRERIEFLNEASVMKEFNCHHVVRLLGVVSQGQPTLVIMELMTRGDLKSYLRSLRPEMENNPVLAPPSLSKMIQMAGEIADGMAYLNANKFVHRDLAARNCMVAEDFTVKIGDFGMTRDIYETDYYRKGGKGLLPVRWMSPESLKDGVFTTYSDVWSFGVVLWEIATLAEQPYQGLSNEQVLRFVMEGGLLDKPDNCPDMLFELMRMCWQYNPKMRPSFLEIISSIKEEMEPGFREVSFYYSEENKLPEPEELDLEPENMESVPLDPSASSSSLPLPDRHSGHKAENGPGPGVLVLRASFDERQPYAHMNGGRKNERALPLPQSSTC

Hck-1 = target: T11, Hck-1 (Homo sapiens, UniProt P08631); test: Kinase inhibition assay (33P transfer), Hck; conditions: Table 6, Hck-1 kinase inhibition class
T11 construct: Kinases are expressed as either kinase domains or full length constructs; made in house
T11 sequence (P08631 whole entry, the tested form may be a part): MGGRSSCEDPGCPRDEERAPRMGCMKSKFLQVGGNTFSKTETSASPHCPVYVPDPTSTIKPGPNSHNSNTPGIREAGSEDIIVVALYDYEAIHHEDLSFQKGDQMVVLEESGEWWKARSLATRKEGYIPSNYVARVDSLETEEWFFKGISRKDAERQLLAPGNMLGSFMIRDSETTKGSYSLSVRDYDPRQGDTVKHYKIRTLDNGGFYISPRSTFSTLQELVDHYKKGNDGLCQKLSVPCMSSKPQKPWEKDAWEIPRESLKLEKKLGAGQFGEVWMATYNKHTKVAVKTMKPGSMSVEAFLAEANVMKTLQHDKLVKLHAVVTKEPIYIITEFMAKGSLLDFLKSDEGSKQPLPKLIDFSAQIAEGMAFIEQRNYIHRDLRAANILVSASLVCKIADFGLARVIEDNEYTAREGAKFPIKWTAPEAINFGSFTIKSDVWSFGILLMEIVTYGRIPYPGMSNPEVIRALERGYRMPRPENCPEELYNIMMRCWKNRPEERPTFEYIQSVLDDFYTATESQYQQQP

Kdr = target: T12, Kdr (Homo sapiens, UniProt P35968); test: Kinase inhibition assay (33P transfer), Kdr; conditions: Table 3; read-out: KDR-1
T12 construct: Kinases are expressed as either kinase domains or full length constructs; made in house
Procedure, shortened: as §2

Zap-70 = target: T13, Zap-70 (Homo sapiens, UniProt P43403); test: Kinase inhibition assay (33P transfer), Zap-70; conditions: Table 3; read-out: Zap-1
T13 construct: Kinases are expressed as either kinase domains or full length constructs; made in house
T13 sequence (P43403 1-619): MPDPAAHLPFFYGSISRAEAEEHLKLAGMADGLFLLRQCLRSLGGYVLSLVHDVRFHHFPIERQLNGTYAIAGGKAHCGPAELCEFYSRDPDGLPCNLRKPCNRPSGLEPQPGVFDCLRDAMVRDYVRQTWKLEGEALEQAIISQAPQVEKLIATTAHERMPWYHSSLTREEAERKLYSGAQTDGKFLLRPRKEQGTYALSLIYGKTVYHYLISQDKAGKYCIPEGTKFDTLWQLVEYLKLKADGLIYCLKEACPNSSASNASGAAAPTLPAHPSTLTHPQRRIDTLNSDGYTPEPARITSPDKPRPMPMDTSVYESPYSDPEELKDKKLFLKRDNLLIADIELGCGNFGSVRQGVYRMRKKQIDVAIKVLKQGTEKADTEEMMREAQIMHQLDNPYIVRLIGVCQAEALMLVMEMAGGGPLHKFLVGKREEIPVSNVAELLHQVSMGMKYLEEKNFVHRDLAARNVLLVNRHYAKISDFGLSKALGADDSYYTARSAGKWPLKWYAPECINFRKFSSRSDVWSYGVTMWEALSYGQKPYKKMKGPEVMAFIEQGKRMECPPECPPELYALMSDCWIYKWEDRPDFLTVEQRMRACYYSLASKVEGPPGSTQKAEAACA
Procedure, shortened: as §2

PDGFRB = target: T14, PDGFRB (Homo sapiens, UniProt P09619); test: Kinase inhibition assay (33P transfer), PDGFRB; conditions: read-out: PDGFRB-1
T14 construct: Kinases are expressed as either kinase domains or full length constructs; made in house

IC50 (Flt-1) [µM]	IC50 (ErbB4) [µM]	IC50 (AKT) [µM]	IC50 (Itk) [µM]	IC50 (c-Met) [µM]	IC50 (FGFR1) [µM]	IC50 (Lck) [µM]	IC50 (Lyn) [µM]	IC50 (Fyn) [µM]	IC50 (IGFR-1) [µM]	IC50 (Hck-1) [µM]	IC50 (Kdr) [µM]	IC50 (Zap-70) [µM]	IC50 (PDGFRB) [µM]	Structure (SMILES)
> 9.97	> 9.97	> 9.97	> 9.97	> 9.97	0.886 to 5.32	> 9.97	> 9.97	> 9.97	< 0.886	> 9.97	0.886 to 5.32	> 9.97	> 9.97	COCCOc1ccc(Nc2ncnc(-n3c(N)nc4ccccc43)n2)cc1OCCOC [Compound 302]
7.25 to 9.33	> 9.33	7.25 to 9.33	> 9.33	4.97 to 7.25	7.25 to 9.33	0.829 to 4.97	< 0.829	0.829 to 4.97	0.829 to 4.97	> 9.33	0.829 to 4.97	0.829 to 4.97	4.97 to 7.25	COc1cc(Nc2ncnc(Nc3ccc4c(ccn4Cc4ccccc4)c3)n2)cc(OC)c1OC [Compound 178]
1.1 to 6.62	> 12.4	1.1 to 6.62	9.66 to 12.4	> 12.4	6.62 to 9.66	1.1 to 6.62	6.62 to 9.66	6.62 to 9.66	1.1 to 6.62	> 12.4	1.1 to 6.62	> 12.4	> 12.4	COc1ccc(Nc2ncnc(Nc3ccc4[nH]ccc4c3)n2)cc1OC [Compound 115]
8.99 to 11.6	> 11.6	> 11.6	> 11.6	> 11.6	> 11.6	> 11.6	1.03 to 6.16	8.99 to 11.6	< 1.03	> 11.6	< 1.03	> 11.6	< 1.03	COc1cc(Nc2ncnc(Nc3cc(F)ccc3F)n2)cc(OC)c1OC [Compound 316]
6.53 to 9.53	1.09 to 6.53	> 12.2	> 12.2	9.53 to 12.2	6.53 to 9.53	1.09 to 6.53	< 1.09	< 1.09	1.09 to 6.53	6.53 to 9.53	< 1.09	> 12.2	< 1.09	COc1cc(Nc2ncnc(Nc3ccc(C)cc3)n2)cc(OC)c1OC [Compound 930]
1.05 to 6.28	1.05 to 6.28	> 11.8	6.28 to 9.15	> 11.8	1.05 to 6.28	1.05 to 6.28	< 1.05	< 1.05	1.05 to 6.28	6.28 to 9.15	< 1.05	> 11.8	< 1.05	COc1cc(Nc2ncnc(Nc3ccc(C)c(N)c3)n2)cc(OC)c1OC [Compound 935]
> 11	> 11	> 11	5.89 to 8.59	> 11	0.982 to 5.89	0.982 to 5.89	> 11	> 11	< 0.982	> 11	< 0.982	> 11	> 11	COCCOc1ccc(Nc2ncnc(-n3c(N)nc4ccccc43)n2)cc1OC [Compound 287]
